The values below come from ChEMBL document CHEMBL2401621, “Design, synthesis and antibacterial evaluation of novel AHL analogues” (2013).

Structures are written as SMILES. ≈ marks a conversion by molar mass, not a printed value. Where only a bound is given, the exact number is not on record here.

What all share (format): functional
In one experiment the test system is Staphylococcus aureus. The experiment is described as follows: Antibacterial activity against Staphylococcus aureus after 18 hrs by broth microdilution method.
The subject of another experiment is Pseudomonas aeruginosa. The experiment in a line: Antibacterial activity against Pseudomonas aeruginosa after 18 hrs by broth microdilution method. A general note: In broth dilution the organism is exposed to a series of concentrations in liquid medium.
A further experiment relates to Escherichia coli. The experiment is described as follows: Antibacterial activity against Escherichia coli after 18 hrs by broth microdilution method.
The test system of a further experiment is Bacillus subtilis. The experiment in a line: Antibacterial activity against Bacillus subtilis after 18 hrs by broth microdilution method.

For orientation: MIC50 means the lowest concentration that inhibits either 50% of growth or 50% of the strains tested, depending on the study. Lower therefore signals greater potency. As to `O=C(CSC(=S)N[C@H]1CCOC1=O)Nc1cccc(Cl)c1`, the MIC50 against Staphylococcus aureus, against Pseudomonas aeruginosa, against Escherichia coli and in the experiment on Bacillus subtilis was greater than 128 µg/mL in each case.

With `O=C(CSC(=S)N[C@H]1CCOC1=O)Nc1ccc(Br)cc1`, the MIC50 was 3.69 µg/mL (≈ 9.48 µM) against Staphylococcus aureus, 54.5 µg/mL (≈ 140 µM) against Pseudomonas aeruginosa, 24.9 µg/mL (≈ 63.9 µM) in the experiment with Escherichia coli and 30.2 µg/mL (≈ 77.7 µM) with Bacillus subtilis.

Turning to `O=C(CSC(=S)N[C@H]1CCOC1=O)Nc1ccccc1`, the MIC50 is 7.72 µg/mL (≈ 24.9 µM) with Staphylococcus aureus, 48.5 µg/mL (≈ 156 µM) in the experiment with Pseudomonas aeruginosa, greater than 128 µg/mL in the experiment with Escherichia coli and 47.9 µg/mL (≈ 154 µM) against Bacillus subtilis.

As for `O=C(CSC(=S)N[C@H]1CCOC1=O)Nc1cccc(C(F)(F)F)c1`, the MIC50 against Staphylococcus aureus was 5.81 µg/mL (≈ 15.3 µM); against Pseudomonas aeruginosa, greater than 128 µg/mL; with Escherichia coli it was greater than 128 µg/mL; with Bacillus subtilis it was 1.44 µg/mL (≈ 3.81 µM).

Consider `CCSC(=S)N[C@H]1CCOC1=O`, for which the MIC50 in the experiment with Staphylococcus aureus was greater than 128 µg/mL; in the experiment on Pseudomonas aeruginosa, 34.6 µg/mL (≈ 168 µM); against Escherichia coli, 25.2 µg/mL (≈ 123 µM); in the experiment with Bacillus subtilis it was greater than 128 µg/mL.

For the compound `O=C(CSC(=S)N[C@H]1CCOC1=O)Nc1ccccc1F`, the MIC50 in the experiment on Staphylococcus aureus was 6.53 µg/mL (≈ 19.9 µM); with Pseudomonas aeruginosa it was greater than 128 µg/mL; with Escherichia coli it was 40.5 µg/mL (≈ 123 µM); in the experiment with Bacillus subtilis, greater than 128 µg/mL.

Turning to `Cc1ccc(NC(=O)CSC(=S)N[C@H]2CCOC2=O)cc1`, the MIC50 was 3.49 µg/mL (≈ 10.8 µM) against Staphylococcus aureus, 63.8 µg/mL (≈ 197 µM) in the experiment on Pseudomonas aeruginosa, 30.6 µg/mL (≈ 94.3 µM) in the experiment on Escherichia coli and greater than 128 µg/mL with Bacillus subtilis.

As to `Cc1cccc(NC(=O)CSC(=S)N[C@H]2CCOC2=O)c1`, the MIC50 with Staphylococcus aureus is greater than 128 µg/mL; with Pseudomonas aeruginosa it was 37.2 µg/mL (≈ 115 µM); against Escherichia coli, greater than 128 µg/mL; with Bacillus subtilis, greater than 128 µg/mL.

In the case of `CCCCCCCCCCCCCCSC(=S)N[C@H]1CCOC1=O`, the MIC50 with Staphylococcus aureus is greater than 128 µg/mL; in the experiment with Pseudomonas aeruginosa it was greater than 128 µg/mL; against Escherichia coli it was 67.8 µg/mL (≈ 182 µM); with Bacillus subtilis it was greater than 128 µg/mL.

For the compound `O=C(CSC(=S)N[C@H]1CCOC1=O)Nc1ccc(Cl)cc1Cl`, the MIC50 against Staphylococcus aureus was 4.9 µg/mL (≈ 12.9 µM); in the experiment on Pseudomonas aeruginosa, greater than 128 µg/mL; against Escherichia coli, 21 µg/mL (≈ 55.4 µM); in the experiment with Bacillus subtilis it was 5.6 µg/mL (≈ 14.8 µM).

Regarding `CCCCCCCCCCCCSC(=S)N[C@H]1CCOC1=O`, the MIC50 in the experiment with Staphylococcus aureus was 50.6 µg/mL (≈ 146 µM); against Pseudomonas aeruginosa, greater than 128 µg/mL; with Escherichia coli, greater than 128 µg/mL; with Bacillus subtilis, greater than 128 µg/mL.

Turning to `O=C(CSC(=S)N[C@H]1CCOC1=O)Nc1ccc(Cl)cc1`, the MIC50 with Staphylococcus aureus is 3.5 µg/mL (≈ 10.1 µM); in the experiment on Pseudomonas aeruginosa, greater than 128 µg/mL; in the experiment on Escherichia coli, greater than 128 µg/mL; with Bacillus subtilis it was greater than 128 µg/mL.

Take `Cc1cccc(NC(=O)CSC(=S)N[C@H]2CCOC2=O)c1C`: the MIC50 against Staphylococcus aureus, in the experiment with Pseudomonas aeruginosa, with Escherichia coli and against Bacillus subtilis was greater than 128 µg/mL throughout.

For `O=C(CSC(=S)N[C@H]1CCOC1=O)Nc1cccc([N+](=O)[O-])c1`, the MIC50 against Staphylococcus aureus came to 8.67 µg/mL (≈ 24.4 µM); against Pseudomonas aeruginosa it was 59.9 µg/mL (≈ 169 µM); against Escherichia coli, 12.8 µg/mL (≈ 36 µM); with Bacillus subtilis, 6.29 µg/mL (≈ 17.7 µM).

Turning to `CCCCCCSC(=S)N[C@H]1CCOC1=O`, the MIC50 against Staphylococcus aureus, in the experiment on Pseudomonas aeruginosa, in the experiment with Escherichia coli and in the experiment with Bacillus subtilis was greater than 128 µg/mL in each case.

Regarding `CSC(=S)N[C@H]1CCOC1=O`, the MIC50 against Staphylococcus aureus was greater than 128 µg/mL; against Pseudomonas aeruginosa, 31.9 µg/mL (≈ 167 µM); in the experiment with Escherichia coli it was 17.6 µg/mL (≈ 92 µM); with Bacillus subtilis, greater than 128 µg/mL.

Take `CCCCSC(=S)N[C@H]1CCOC1=O`: the MIC50 against Staphylococcus aureus is greater than 128 µg/mL; in the experiment on Pseudomonas aeruginosa, 44.6 µg/mL (≈ 191 µM); against Escherichia coli it was greater than 128 µg/mL; with Bacillus subtilis, greater than 128 µg/mL.

With `C[C@H]1COc2c(N3CCN(C)CC3)c(F)cc3c(=O)c(C(=O)O)cn1c23.C[C@H]1COc2c(N3CCN(C)CC3)c(F)cc3c(=O)c(C(=O)O)cn1c23.O` [LEVOFLOXACIN], the MIC50 in the experiment with Staphylococcus aureus, against Pseudomonas aeruginosa, against Escherichia coli and with Bacillus subtilis was less than 0.25 µg/mL throughout.

As for `CCCCCCCCSC(=S)N[C@H]1CCOC1=O`, the MIC50 with Staphylococcus aureus, in the experiment with Pseudomonas aeruginosa, with Escherichia coli and against Bacillus subtilis was greater than 128 µg/mL each time.

On to `COc1ccc(NC(=O)CSC(=S)N[C@H]2CCOC2=O)cc1`, for which the MIC50 in the experiment on Staphylococcus aureus was 9.52 µg/mL (≈ 28 µM); against Pseudomonas aeruginosa, greater than 128 µg/mL; in the experiment with Escherichia coli, 54.2 µg/mL (≈ 159 µM); against Bacillus subtilis it was greater than 128 µg/mL.

`O=C(CSC(=S)N[C@H]1CCOC1=O)Nc1ccccc1Cl`: the MIC50 was 5.62 µg/mL (≈ 16.3 µM) against Staphylococcus aureus, greater than 128 µg/mL in the experiment with Pseudomonas aeruginosa, greater than 128 µg/mL with Escherichia coli and 9.63 µg/mL (≈ 27.9 µM) against Bacillus subtilis.
